Reference: patent publication US11365188B2, “JAK inhibitors” (priority 2018, dated 2022)
pIC50: −log10 of the molar value.

How the values were obtained:
Format in all cases: biochemical
JAK1 = JAK1 (Homo sapiens, UniProt P23458); assay: JAK Kinase Assay (JAK1, Caliper EZ Reader, fluoresceinated peptide); conditions: ATP 76.5 μM; JAK1 10 nM; 120 minutes at room temperature; read-out: JAK1 inhibition
JAK2 = JAK2 (Homo sapiens, UniProt O60674); assay: JAK2 Assay (Caliper EZ Reader, fluoresceinated peptide); conditions: ATP 11.4 μM; JAK2 0.25 nM; 15 minutes at room temperature; read-out: JAK2 inhibition
Chain of JAK2 (O60674 whole entry, species assumed): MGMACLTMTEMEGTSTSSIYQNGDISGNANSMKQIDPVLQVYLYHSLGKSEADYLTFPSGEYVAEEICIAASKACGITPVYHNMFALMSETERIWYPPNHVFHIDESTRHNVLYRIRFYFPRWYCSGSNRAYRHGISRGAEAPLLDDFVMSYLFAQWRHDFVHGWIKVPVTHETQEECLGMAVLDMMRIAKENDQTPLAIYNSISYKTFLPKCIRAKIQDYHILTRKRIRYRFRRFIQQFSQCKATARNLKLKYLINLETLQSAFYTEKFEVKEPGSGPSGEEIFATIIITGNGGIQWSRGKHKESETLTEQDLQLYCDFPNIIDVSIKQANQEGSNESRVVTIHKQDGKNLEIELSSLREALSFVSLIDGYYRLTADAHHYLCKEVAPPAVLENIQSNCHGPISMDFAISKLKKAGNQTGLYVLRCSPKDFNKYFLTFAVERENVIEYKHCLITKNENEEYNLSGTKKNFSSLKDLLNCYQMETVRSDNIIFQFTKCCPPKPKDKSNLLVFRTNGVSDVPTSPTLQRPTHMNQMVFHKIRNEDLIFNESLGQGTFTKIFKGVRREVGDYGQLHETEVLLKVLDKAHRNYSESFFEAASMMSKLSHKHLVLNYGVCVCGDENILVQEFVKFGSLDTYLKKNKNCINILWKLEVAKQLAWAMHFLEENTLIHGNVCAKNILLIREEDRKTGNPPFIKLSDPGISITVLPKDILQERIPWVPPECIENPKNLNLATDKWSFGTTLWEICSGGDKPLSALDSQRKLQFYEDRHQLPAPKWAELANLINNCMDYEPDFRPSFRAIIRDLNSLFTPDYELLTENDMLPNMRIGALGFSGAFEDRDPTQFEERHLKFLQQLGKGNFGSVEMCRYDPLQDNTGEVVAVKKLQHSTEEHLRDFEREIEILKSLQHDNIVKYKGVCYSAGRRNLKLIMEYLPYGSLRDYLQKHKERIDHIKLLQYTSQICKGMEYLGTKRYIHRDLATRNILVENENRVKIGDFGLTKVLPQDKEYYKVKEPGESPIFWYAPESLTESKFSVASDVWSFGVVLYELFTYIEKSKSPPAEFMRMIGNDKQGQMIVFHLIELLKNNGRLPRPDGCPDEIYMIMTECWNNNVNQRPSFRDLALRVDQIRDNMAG
Description: JAK2 Assay 384-well plates in the left foot butoxy measured progress. The final assay volume was 25 μL, 250 nL 100× compounds, 10 μL enzyme mix and 15 μL substrate mix (fluoresceinated peptide and ATP) in assay buffer (50 mM HEPES (pH 7.5), 10 mM MgCl2, 0.01% TritonX-100, 0.01% Brij35, 0.5 mM EGTA and 2 mM DTT) prepared as test compound By mixing the JAK2 with substrates and test compounds to start the reaction. The reaction mixture was incubated for 15 minutes at room temperature, then added 30 μL stop buffer for each sample to terminate the reaction with 50 mM EDTA. After termination of the kinase reaction, the proportion of phosphorylated product was determined as a fraction of total peptide substrate using Caliper EZ Reader 1 Inhibition data were calculated by comparison with 100% of the reaction mixture without enzyme inhibition and vehicle-only reaction mixture billion % inhibition compared. The final concentration of reagents in the assays is: ATP, 11.4 μM; JAK2 fluorescent peptide (5-FAM-EEPLYWSFPAKKK-CONH2), 3 μM; JAK2, 0.25 nM; and DMSO, 1%. Dose response curve were generated to determine the concentration required for IC50 of JAK2 activity.

JAK3 = molecular target: T1, JAK3 (Homo sapiens, UniProt P52333); assay: JAK3 Assay (Caliper EZ Reader, fluoresceinated peptide); conditions: ATP 3.5 μM; JAK3 0.5 nM; 30 minutes at room temperature; read-out: JAK3 inhibition
T1 sequence (P52333 1-1124): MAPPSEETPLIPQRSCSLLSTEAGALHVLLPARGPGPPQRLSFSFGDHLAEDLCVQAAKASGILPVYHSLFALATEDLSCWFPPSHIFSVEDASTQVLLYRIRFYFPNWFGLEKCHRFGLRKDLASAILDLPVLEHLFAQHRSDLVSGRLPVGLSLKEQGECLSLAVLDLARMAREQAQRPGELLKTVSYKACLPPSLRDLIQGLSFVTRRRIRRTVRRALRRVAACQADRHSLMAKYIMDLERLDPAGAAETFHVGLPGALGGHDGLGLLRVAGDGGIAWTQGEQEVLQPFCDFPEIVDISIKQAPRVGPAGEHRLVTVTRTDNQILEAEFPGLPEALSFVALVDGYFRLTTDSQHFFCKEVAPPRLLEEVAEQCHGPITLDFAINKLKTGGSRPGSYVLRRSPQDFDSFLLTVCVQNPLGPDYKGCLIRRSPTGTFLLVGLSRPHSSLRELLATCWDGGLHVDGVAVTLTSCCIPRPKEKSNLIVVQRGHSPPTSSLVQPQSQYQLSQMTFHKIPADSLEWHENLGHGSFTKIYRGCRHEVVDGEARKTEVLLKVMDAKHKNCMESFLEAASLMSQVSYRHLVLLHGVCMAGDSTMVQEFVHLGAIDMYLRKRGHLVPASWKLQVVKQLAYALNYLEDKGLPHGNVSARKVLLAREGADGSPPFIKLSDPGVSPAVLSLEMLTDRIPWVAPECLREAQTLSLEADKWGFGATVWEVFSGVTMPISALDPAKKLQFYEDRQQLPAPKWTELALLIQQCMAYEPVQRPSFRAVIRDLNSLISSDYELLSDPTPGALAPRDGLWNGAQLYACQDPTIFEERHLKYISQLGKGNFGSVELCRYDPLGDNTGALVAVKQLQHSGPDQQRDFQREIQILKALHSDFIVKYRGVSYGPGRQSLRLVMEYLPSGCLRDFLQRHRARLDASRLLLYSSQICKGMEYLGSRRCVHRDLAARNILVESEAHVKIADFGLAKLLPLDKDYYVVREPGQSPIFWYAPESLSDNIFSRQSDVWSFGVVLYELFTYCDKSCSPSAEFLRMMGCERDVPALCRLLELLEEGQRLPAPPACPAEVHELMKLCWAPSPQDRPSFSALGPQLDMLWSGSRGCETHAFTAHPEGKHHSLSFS
Description: JAK3 Assay 384-well plates in the left foot butoxy measured progress. The final assay volume was 25 μL, 250 nL 100× compounds, 10 μL enzyme mix and 15 μL substrate mix (fluoresceinated peptide and ATP) in assay buffer (50 mM HEPES (pH 7.5), 10 mM MgCl2, 0.01% TritonX-100, 0.01% Brij35, 0.5 mM EGTA and 2 mM DTT) prepared as test compound. By mixing the JAK3 with substrates and test compounds to start the reaction. The reaction mixture was incubated for 30 minutes at room temperature, then added 30 μL stop buffer for each sample to terminate the reaction with 50 mM EDTA. After termination of the kinase reaction, the proportion of phosphorylated product was determined as a fraction of total peptide substrate using Caliper EZ Reader II. Inhibition data were calculated by comparison with 100% of the reaction mixture without enzyme inhibition and vehicle-only reaction mixture billion % inhibition compared. The final concentration of reagents in the assays is: ATP, 3.5 μM; JAK3 fluorescent peptide (5-FAM-EEPLYWSFPAKKK-CONH2), 3 μM; JAK3, 0.5 nM; and DMSO, 1%. Dose response curve were generated to determine the concentration required for IC50 of JAK3 activity.

Chain of JAK1 (P23458 whole entry, species assumed): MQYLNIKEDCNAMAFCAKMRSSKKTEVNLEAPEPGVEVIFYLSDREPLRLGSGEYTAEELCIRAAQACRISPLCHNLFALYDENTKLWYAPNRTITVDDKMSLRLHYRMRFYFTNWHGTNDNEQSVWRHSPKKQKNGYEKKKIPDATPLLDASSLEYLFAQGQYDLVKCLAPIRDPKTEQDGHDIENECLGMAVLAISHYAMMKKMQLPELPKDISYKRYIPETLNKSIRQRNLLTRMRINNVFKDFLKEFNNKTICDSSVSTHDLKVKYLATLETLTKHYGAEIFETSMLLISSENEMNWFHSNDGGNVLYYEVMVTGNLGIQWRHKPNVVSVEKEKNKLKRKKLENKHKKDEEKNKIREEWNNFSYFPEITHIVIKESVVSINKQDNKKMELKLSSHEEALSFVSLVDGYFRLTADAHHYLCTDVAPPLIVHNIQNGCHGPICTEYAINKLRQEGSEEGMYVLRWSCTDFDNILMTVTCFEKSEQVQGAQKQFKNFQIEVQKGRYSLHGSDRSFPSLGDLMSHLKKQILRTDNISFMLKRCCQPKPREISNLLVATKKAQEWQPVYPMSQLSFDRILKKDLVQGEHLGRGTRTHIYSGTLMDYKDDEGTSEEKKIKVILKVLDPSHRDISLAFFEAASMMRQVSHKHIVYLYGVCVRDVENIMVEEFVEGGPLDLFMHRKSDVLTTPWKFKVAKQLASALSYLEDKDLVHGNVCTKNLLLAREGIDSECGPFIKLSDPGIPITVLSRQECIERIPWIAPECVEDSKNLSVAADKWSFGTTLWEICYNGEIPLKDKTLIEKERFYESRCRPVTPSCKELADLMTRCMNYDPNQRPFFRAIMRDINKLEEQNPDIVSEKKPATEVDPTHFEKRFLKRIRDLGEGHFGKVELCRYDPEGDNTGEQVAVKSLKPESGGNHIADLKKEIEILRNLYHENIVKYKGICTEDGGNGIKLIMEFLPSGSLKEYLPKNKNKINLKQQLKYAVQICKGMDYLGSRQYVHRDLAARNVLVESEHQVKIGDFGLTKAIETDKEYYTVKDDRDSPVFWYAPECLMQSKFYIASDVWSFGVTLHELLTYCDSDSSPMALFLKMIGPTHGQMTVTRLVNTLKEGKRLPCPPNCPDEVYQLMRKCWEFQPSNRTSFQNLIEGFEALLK

Row | Compound | pIC50 (JAK1) | pIC50 (JAK2) | pIC50 (JAK3)
1 | CN(c1ncnc2[nH]ccc12)C1CC2(C1)CN(C(=O)Cc1c[nH]c3ccccc13)C2 [Compound 23, 2-(1H-indol-3-yl)-1-(6-(methyl(7H-pyrrolo[2,3-d]pyrimidin-4-yl)amino)-2-azaspiro[3.3]heptan-2-yl)ethanone] | 6.00 to 7.00 | 5.00 to 6.00 | 5.00 to 6.00
2 | Cc1cncc(C(=O)N2CC3(CC(N(C)c4ncnc5[nH]ccc45)C3)C2)n1 [Compound 29, (6-(methyl(7H-pyrrolo[2,3-d]pyrimidin-4-yl)amino)-2-azaspiro[3.3]heptan-2-yl)(6-methylpyrazin-2-yl)methanone] | 6.00 to 7.00 | 5.00 to 6.00 | ≤ 5.00
3 | Cc1cc(C(=O)N2CC3(CC(N(C)c4ncnc5[nH]ccc45)C3)C2)ccc1C#N [Compound 34, 2-methyl-4-(6-(methyl(7H-pyrrolo[2,3-d]pyrimidin-4-yl)amino)-2-azaspiro[3.3]heptane-2-carbonyl)benzonitrile] | 7.00 to 8.00 | 5.00 to 6.00 | 5.00 to 6.00
4 | CN(c1ncnc2[nH]ccc12)C1CC2(C1)CN(C(=O)c1ccc(C#N)nc1)C2 [Compound 35, 5-(6-(methyl(7H-pyrrolo[2,3-d]pyrimidin-4-yl)amino)-2-azaspiro[3.3]heptane-2-carbonyl)picolinonitrile] | 7.00 to 8.00 | 5.00 to 6.00 | 5.00 to 6.00
5 | CN(c1ncnc2[nH]ccc12)C1CC2(C1)CN(C(=O)c1ccc(C#N)c(Cl)c1)C2 [Compound 36, 2-chloro-4-(6-(methyl(7H-pyrrolo[2,3-d]pyrimidin-4-yl)amino)-2-azaspiro[3.3]heptane-2-carbonyl)benzonitrile] | 7.00 to 8.00 | 5.00 to 6.00 | 5.00 to 6.00
6 | CN(c1ncnc2[nH]ccc12)C1CC2(C1)CN(C(=O)c1ccc(C#N)cc1Cl)C2 [Compound 37, 3-chloro-4-(6-(methyl(7H-pyrrolo[2,3-d]pyrimidin-4-yl)amino)-2-azaspiro[3.3]heptane-2-carbonyl)benzonitrile] | 7.00 to 8.00 | 6.00 to 7.00 | 5.00 to 6.00
7 | CN(c1ncnc2[nH]ccc12)C1CC2(C1)CN(C(=O)c1ccc(I)cc1)C2 [Compound 38, (4-iodophenyl)(6-(methyl(7H-pyrrolo[2,3-d]pyrimidin-4-yl)amino)-2-azaspiro[3.3]heptan-2-yl)methanone] | 7.00 to 8.00 | 6.00 to 7.00 | 5.00 to 6.00
8 | CN(c1ncnc2[nH]ccc12)C1CC2(C1)CN(C(=O)c1ccc(C3CC3)cc1)C2 [Compound 39, (4-cyclopropylphenyl)(6-(methyl(7H-pyrrolo[2,3-d]pyrimidin-4-yl)amino)-2-azaspiro[3.3]heptan-2-yl)methanone] | 7.00 to 8.00 | 6.00 to 7.00 | 5.00 to 6.00
9 | C#Cc1ccc(C(=O)N2CC3(CC(N(C)c4ncnc5[nH]ccc45)C3)C2)cc1C [Compound 40, (4-ethynyl-3-methylphenyl)(6-(methyl(7H-pyrrolo[2,3-d]pyrimidin-4-yl)amino)-2-azaspiro[3.3]heptan-2-yl)methanone] | ≥ 8.00 | 6.00 to 7.00 | 5.00 to 6.00
10 | C#Cc1ccc(C(=O)N2CC3(CC(N(C)c4ncnc5[nH]ccc45)C3)C2)c(F)c1 [Compound 41, (4-ethynyl-2-fluorophenyl)(6-(methyl(7H-pyrrolo[2,3-d]pyrimidin-4-yl)amino)-2-azaspiro[3.3]heptan-2-yl)methanone] | ≥ 8.00 | 7.00 to 8.00 | 5.00 to 6.00
11 | CC#Cc1ccc(C(=O)N2CC3(CC(N(C)c4ncnc5[nH]ccc45)C3)C2)cc1 [Compound 42, (6-(methyl(7H-pyrrolo[2,3-d]pyrimidin-4-yl)amino)-2-azaspiro[3.3]heptan-2-yl)(4-(prop-1-yn-1-yl)phenyl)methanone] | ≥ 8.00 | 7.00 to 8.00 | 5.00 to 6.00
12 | C#Cc1ccc(C(=O)N2CC3(CC(N(C)c4ncnc5[nH]ccc45)C3)C2)c(Cl)c1 [Compound 43, (2-chloro-4-ethynylphenyl)(6-(methyl(7H-pyrrolo[2,3-d]pyrimidin-4-yl)amino)-2-azaspiro[3.3]heptan-2-yl)methanone] | ≥ 8.00 | 6.00 to 7.00 | 5.00 to 6.00
13 | Cc1cc(C#N)ccc1C(=O)N1CC2(CC(N(C)c3ncnc4[nH]ccc34)C2)C1 [Compound 44, 3-methyl-4-(6-(methyl(7H-pyrrolo[2,3-d]pyrimidin-4-yl)amino)-2-azaspiro[3.3]heptane-2-carbonyl)benzonitrile] | 6.00 to 7.00 | 5.00 to 6.00 | ≤ 5.00
14 | CN(c1ncnc2[nH]ccc12)C1CC2(C1)CN(C(=O)c1cc[nH]n1)C2 [Compound 45, (6-(methyl(7H-pyrrolo[2,3-d]pyrimidin-4-yl)amino)-2-azaspiro[3.3]heptan-2-yl)(1H-pyrazol-3-yl)methanone] | 5.00 to 6.00 | 5.00 to 6.00 | ≤ 5.00
15 | C#Cc1ccc(C(=O)N2CC3(CC(N(C)c4ncnc5[nH]ccc45)C3)C2)cc1Cl [Compound 46, (3-chloro-4-ethynylphenyl)(6-(methyl(7H-pyrrolo[2,3-d]pyrimidin-4-yl)amino)-2-azaspiro[3.3]heptan-2-yl)methanone] | ≥ 8.00 | 6.00 to 7.00 | ≤ 5.00
16 | C#Cc1ccc(C(=O)N2CC3(CC(N(C)c4ncnc5[nH]ccc45)C3)C2)cc1F [Compound 47, (4-ethynyl-3-fluorophenyl)(6-(methyl(7H-pyrrolo[2,3-d]pyrimidin-4-yl)amino)-2-azaspiro[3.3]heptan-2-yl)methanone] | ≥ 8.00 | 6.00 to 7.00 | 5.00 to 6.00
17 | C#Cc1ccc(C(=O)N2CC3(CC(N(C)c4ncnc5[nH]ccc45)C3)C2)nc1 [Compound 48, (5-ethynylpyridin-2-yl)(6-(methyl(7H-pyrrolo[2,3-d]pyrimidin-4-yl)amino)-2-azaspiro[3.3]heptan-2-yl)methanon] | 7.00 to 8.00 | 5.00 to 6.00 | 5.00 to 6.00
18 | CN(c1ncnc2[nH]ccc12)C1CC2(C1)CN(C(=O)c1ccc3c(c1)ncn3C)C2 [Compound 49, (6-(methyl(7H-pyrrolo[2,3-d]pyrimidin-4-yl)amino)-2-azaspiro[3.3]heptan-2-yl)(1-methyl-1H-benzo[d]imidazol-5-yl)methanone] | 5.00 to 6.00 | 5.00 to 6.00 | ≤ 5.00
19 | CN(c1ncnc2[nH]ccc12)C1CC2(C1)CN(C(=O)c1ccn(C)n1)C2 [Compound 50, (6-(methyl(7H-pyrrolo[2,3-d]pyrimidin-4-yl)amino)-2-azaspiro[3.3]heptan-2-yl)(1-methyl-1H-pyrazol-3-yl)methanone] | 6.00 to 7.00 | ≤ 5.00 | ≤ 5.00
